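Growth conditions: 96-well plates. Treatment: test compound, 48 hours, 5 concentrations. Analysis: linear interpolation between bracketing concentrations; unreached endpoints set to highest concentration. TGI is the concentration that stops growth completely.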
Legend:
Experiment in all cases: NCI tumour cell line growth inhibition, 48 h
[1] = test system: SNB-19 CNS
[2] = test system: HT29 colon
[3] = test system: KM12 colon
[4] = test system: SW-620 colon
[5] = test system: BT-549 breast
[6] = test system: OVCAR-8 ovarian
[7] = test system: M14 melanoma
[8] = test system: DU-145 prostate
[9] = test system: HOP-62 NSCLC
[10] = test system: SN12C renal
[11] = test system: HCT-15 colon
[12] = test system: NCI-H522 lung
[13] = test system: RXF 393 renal
[14] = test system: SF-295 CNS
[15] = test system: UO-31 renal
[16] = test system: HOP-92 NSCLC
[17] = test system: A549 NSCLC
[18] = test system: HCT-116 colon
[19] = test system: MCF7 breast
[20] = test system: COLO 205 colon
[21] = test system: T-47D breast
[22] = test system: SK-OV-3 ovarian
[23] = test system: K-562 leukemia
[24] = test system: SF-268 CNS
[25] = test system: MOLT-4 leukemia
[26] = test system: TK-10 renal
[27] = test system: MDA-N
[28] = test system: SK-MEL-2 melanoma
[29] = test system: EKVX NSCLC
[30] = test system: MALME-3M melanoma
[31] = test system: SR leukemia
[32] = test system: ACHN renal
[33] = test system: HL-60(TB) leukemia
[34] = test system: CAKI-1 renal
[35] = test system: SK-MEL-28 melanoma
[36] = test system: 786-0 renal
[37] = test system: PC-3 prostate
[38] = test system: NCI-H460 lung
[39] = test system: HCC-2998 colon
[40] = test system: OVCAR-4 ovarian
[41] = test system: MDA-MB-435
[42] = test system: IGROV1 ovarian
[43] = test system: OVCAR-5 ovarian
[44] = test system: U251 CNS
[45] = test system: SNB-75 CNS
[46] = test system: NCI-H226 lung
[47] = test system: RPMI-8226 leukemia
[48] = test system: OVCAR-3 ovarian
[49] = test system: NCI/ADR-RES ovarian
[50] = test system: UACC-257 melanoma
[51] = test system: SK-MEL-5 melanoma
[52] = test system: LOX IMVI melanoma
[53] = test system: NCI-H23 lung
[54] = test system: UACC-62 melanoma
[55] = test system: A498 renal
[56] = test system: MDA-MB-231 breast
[57] = test system: SF-539 CNS
[58] = test system: CCRF-CEM leukemia
[59] = test system: HS 578T breast

For `CC(=O)NC1C(OCc2ccccc2)OC(CO)C(O)C1OCC(=O)NC(C)C(=O)NC(CCC(=O)OCCNC(=O)c1cccc2cc3ccccc3nc12)C(N)=O` (centres undefined), the TGI [1] was 78.8 µM, the TGI [2] was over 100 µM and the TGI [3] was 56.3 µM. For the same compound, the TGI [4] was over 100 µM, the TGI [5] was 45.8 µM and the TGI [6] was 39.4 µM. For the same compound, the TGI [7] was 42.1 µM, the TGI [8] was 26.6 µM and the TGI [9] was 68.9 µM. The TGI [10] was over 100 µM, the TGI [11] was 33.6 µM and the TGI [12] was 34 µM. The TGI [13] was 39.7 µM, the TGI [14] was 68.2 µM and the TGI [15] was 36.2 µM. For the same compound, the TGI [16] was 59 µM, the TGI [17] was 23.4 µM and the TGI [18] was 31.8 µM. It also gave a TGI [19] of over 100 µM, a TGI [20] of 64.8 µM and a TGI [21] of 54.6 µM. It also gave a TGI [22] of 58.2 µM, a TGI [23] of over 100 µM and a TGI [24] of 67 µM. It also gave a TGI [25] of over 100 µM, a TGI [26] of 41.6 µM and a TGI [27] of over 100 µM. For the same compound, the TGI [28] was 70.9 µM, the TGI [29] was 62.2 µM and the TGI [30] was 31.4 µM. The TGI [31] was 45.3 µM, the TGI [32] was 39.3 µM and the TGI [33] was 57.7 µM. It also gave a TGI [34] of 30.2 µM, a TGI [35] of 43.3 µM and a TGI [36] of 70.8 µM. It also gave a TGI [37] of over 100 µM, a TGI [38] of 57.8 µM and a TGI [39] of 40.4 µM. It also gave a TGI [40] of 48.7 µM, a TGI [41] of 42.4 µM and a TGI [42] of 48.9 µM. It also gave a TGI [43] of 69.3 µM, a TGI [44] of 53.5 µM and a TGI [45] of 51.1 µM. It also gave a TGI [46] of 44.7 µM, a TGI [47] of 19.3 µM and a TGI [48] of 43.3 µM. For the same compound, the TGI [49] was 68.1 µM, the TGI [50] was 66.3 µM and the TGI [51] was 31.3 µM. It also gave a TGI [52] of 26.8 µM, a TGI [53] of 48.6 µM and a TGI [54] of 34.3 µM.
`O=[N+]([O-])/C(Cl)=C(\Sc1ccccc1)C(Cl)=C(Cl)Cl` was tested, and the TGI [1] was 4.26 µM, the TGI [55] was 3.1 µM and the TGI [2] was 1.8 µM. For the same compound, the TGI [3] was 3.21 µM, the TGI [6] was 0.351 µM and the TGI [7] was 0.345 µM. For the same compound, the TGI [8] was 3.08 µM, the TGI [9] was 3.68 µM and the TGI [10] was 1.51 µM. The TGI [11] was 1.5 µM, the TGI [12] was 0.802 µM and the TGI [56] was 0.628 µM. For the same compound, the TGI [13] was 2.6 µM, the TGI [14] was 8.92 µM and the TGI [15] was 0.654 µM. The TGI [16] was 3.4 µM, the TGI [17] was 1.53 µM and the TGI [18] was 0.278 µM. For the same compound, the TGI [19] was 1.1 µM, the TGI [57] was 2.98 µM and the TGI [20] was 0.608 µM. For the same compound, the TGI [21] was 4.88 µM, the TGI [22] was 13.3 µM and the TGI [24] was 3.05 µM. For the same compound, the TGI [25] was 1.58 µM, the TGI [26] was 3.21 µM and the TGI [27] was 0.761 µM. For the same compound, the TGI [29] was 3.9 µM, the TGI [30] was 1.97 µM and the TGI [31] was 0.734 µM. For the same compound, the TGI [32] was 3.07 µM, the TGI [33] was 0.515 µM and the TGI [34] was 3.88 µM. It also gave a TGI [35] of 2.76 µM, a TGI [36] of 1.07 µM and a TGI [37] of 4.12 µM. For the same compound, the TGI [38] was 3.22 µM, the TGI [39] was 3.84 µM and the TGI [40] was 3.65 µM. It also gave a TGI [41] of 0.453 µM, a TGI [42] of 2.62 µM and a TGI [43] of 3.66 µM. It also gave a TGI [44] of 3.69 µM, a TGI [58] of 0.667 µM and a TGI [46] of 4.47 µM. It also gave a TGI [48] of 2.85 µM, a TGI [49] of 0.551 µM and a TGI [50] of 0.994 µM. For the same compound, the TGI [51] was 1.72 µM, the TGI [52] was 0.97 µM and the TGI [53] was 1.87 µM. The TGI [59] was 1.8 µM and the TGI [54] was 1.98 µM.
For `c1ccc(N=C2SC(c3ccccc3)CN2C23CC4CC(CC(C4)C2)C3)cc1` (centres undefined), the TGI [1] was over 100 µM, the TGI [55] was over 100 µM and the TGI [2] was over 100 µM. For the same compound, the TGI [3] was over 100 µM, the TGI [4] was over 100 µM and the TGI [5] was over 100 µM. The TGI [6] was over 100 µM, the TGI [7] was over 100 µM and the TGI [8] was over 100 µM. It also gave a TGI [9] of over 100 µM, a TGI [10] of over 100 µM and a TGI [11] of over 100 µM. For the same compound, the TGI [12] was over 100 µM, the TGI [56] was over 100 µM and the TGI [13] was over 100 µM. For the same compound, the TGI [14] was over 100 µM, the TGI [15] was over 100 µM and the TGI [16] was over 100 µM. It also gave a TGI [17] of over 100 µM, a TGI [18] of over 100 µM and a TGI [19] of over 100 µM. It also gave a TGI [57] of over 100 µM, a TGI [20] of over 100 µM and a TGI [23] of over 100 µM. It also gave a TGI [24] of over 100 µM, a TGI [25] of over 100 µM and a TGI [26] of over 100 µM. The TGI [27] was over 100 µM, the TGI [28] was over 100 µM and the TGI [29] was over 100 µM. The TGI [30] was over 100 µM, the TGI [31] was over 100 µM and the TGI [32] was over 100 µM. It also gave a TGI [33] of over 100 µM, a TGI [34] of over 100 µM and a TGI [35] of over 100 µM. The TGI [36] was over 100 µM, the TGI [37] was over 100 µM and the TGI [38] was over 100 µM. For the same compound, the TGI [39] was over 100 µM, the TGI [40] was over 100 µM and the TGI [41] was over 100 µM. For the same compound, the TGI [42] was over 100 µM, the TGI [43] was over 100 µM and the TGI [44] was over 100 µM. It also gave a TGI [58] of over 100 µM, a TGI [45] of over 100 µM and a TGI [46] of over 100 µM. The TGI [47] was over 100 µM, the TGI [48] was over 100 µM and the TGI [49] was over 100 µM. It also gave a TGI [50] of over 100 µM, a TGI [51] of over 100 µM and a TGI [52] of over 100 µM. The TGI [53] was over 100 µM and the TGI [59] was over 100 µM.
In the case of `N=c1nc(N)nc(N)n1-c1ccc(S(N)(=O)=O)cc1`, the TGI [1] is reported as over 100 µM, the TGI [55] is reported as over 100 µM and the TGI [2] is reported as over 100 µM. For the same compound, the TGI [3] was over 100 µM, the TGI [4] was over 100 µM and the TGI [5] was over 100 µM. It also gave a TGI [6] of over 100 µM, a TGI [7] of over 100 µM and a TGI [8] of over 100 µM. The TGI [9] was over 100 µM, the TGI [10] was over 100 µM and the TGI [11] was over 100 µM. For the same compound, the TGI [12] was over 100 µM, the TGI [56] was over 100 µM and the TGI [13] was over 100 µM. It also gave a TGI [14] of over 100 µM, a TGI [15] of over 100 µM and a TGI [16] of over 100 µM. The TGI [17] was over 100 µM, the TGI [18] was over 100 µM and the TGI [21] was over 100 µM. The TGI [23] was over 100 µM, the TGI [24] was over 100 µM and the TGI [25] was over 100 µM. It also gave a TGI [26] of over 100 µM, a TGI [27] of over 100 µM and a TGI [28] of over 100 µM. It also gave a TGI [29] of over 100 µM, a TGI [30] of over 100 µM and a TGI [31] of over 100 µM. For the same compound, the TGI [32] was over 100 µM, the TGI [33] was over 100 µM and the TGI [34] was over 100 µM. The TGI [35] was over 100 µM, the TGI [36] was over 100 µM and the TGI [37] was over 100 µM. It also gave a TGI [38] of over 100 µM, a TGI [40] of over 100 µM and a TGI [41] of over 100 µM. It also gave a TGI [42] of over 100 µM, a TGI [43] of over 100 µM and a TGI [44] of over 100 µM. The TGI [58] was over 100 µM, the TGI [46] was over 100 µM and the TGI [48] was over 100 µM. For the same compound, the TGI [49] was over 100 µM, the TGI [50] was over 100 µM and the TGI [51] was over 100 µM. The TGI [52] was over 100 µM, the TGI [53] was over 100 µM and the TGI [54] was over 100 µM.
